Reference: patent US11098032B2, “Pyran dervatives as CYP11A1 (cytochrome P450 monooxygenase 11A1) inhibitors” (ORION CORPORATION, priority 2016, dated 2021)

What follows are compounds tested against T1, CYP11A1 (Homo sapiens, UniProt P05108) (assay: CYP11A1 inhibition: modified isocaproic acid release assay (IARA) in H295R cells). Conditions: human H295R adrenocortical carcinoma cells treated three days, 3 nM [24,25-3H]-labelled cholesterol, 1% DMSO, 10 concentrations in duplicates; read-out: IC50 of the test compounds on CYP11A1 inhibition.
T1 construct: human H295R adrenocortical carcinoma cell line was used as source of enzyme; endogenous in cells; host or cells: H295R human adrenocortical carcinoma cells
T1 sequence (P05108 40-521): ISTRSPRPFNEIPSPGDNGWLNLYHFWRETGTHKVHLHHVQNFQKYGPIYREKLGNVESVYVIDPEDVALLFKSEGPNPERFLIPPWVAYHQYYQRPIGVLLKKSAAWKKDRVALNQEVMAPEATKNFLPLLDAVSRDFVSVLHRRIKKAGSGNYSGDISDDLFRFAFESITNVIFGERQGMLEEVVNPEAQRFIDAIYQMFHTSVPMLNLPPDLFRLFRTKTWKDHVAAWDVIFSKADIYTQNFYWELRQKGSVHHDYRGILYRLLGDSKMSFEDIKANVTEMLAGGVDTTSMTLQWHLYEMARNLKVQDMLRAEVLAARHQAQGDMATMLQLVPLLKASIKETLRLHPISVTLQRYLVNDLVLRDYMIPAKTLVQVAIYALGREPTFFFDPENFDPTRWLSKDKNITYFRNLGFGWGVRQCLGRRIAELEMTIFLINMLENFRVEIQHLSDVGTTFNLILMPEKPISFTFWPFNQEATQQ
Assay type: cell-based
Outline: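 H295R adrenocortical cells treated three days with test compounds at 10 concentrations in duplicate plus 3 nM [24,25-3H]-cholesterol, 1% DMSO final. Released radiolabelled isocaproic acid measured by scintillation counting after dextran-coated charcoal extraction; IC50 determined.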

Compound	IC50 [nM]
CS(=O)(=O)N1CCC(COc2coc(CN3Cc4ccc([N+](=O)[O-])cc4C3)cc2=O)CC1 [Compound 207, 5-((1-(Methylsulfonyl)piperidin-4-yl)methoxy)-2-((5-nitroisoindolin-2-yl)methyl)-4H-pyran-4-one]	301 to 2000
CSc1ccc2c(c1)CN(Cc1cc(=O)c(OCC3CCN(S(C)(=O)=O)CC3)co1)C2 [Compound 208, 5-((1-(Methylsulfonyl)piperidin-4-yl)methoxy)-2-((5-(methylthio)isoindolin-2-yl)methyl)-4H-pyran-4-one]	150 to 300
CS(=O)(=O)N1CCC(COc2coc(CN3Cc4cc5c(cc4C3)OCO5)cc2=O)CC1 [Compound 209, 2-((5,7-Dihydro-6H-[1,3]dioxolo[4,5-f]isoindol-6-yl)methyl)-5-((1-(methyl-sulfonyl)piperidin-4-yl)methoxy)-4H-pyran-4-one]	150 to 300
CS(=O)(=O)N1CCC(COc2coc(CN3Cc4cc(F)c(F)cc4C3)cc2=O)CC1 [Compound 210, 2-((5,6-Difluoroisoindolin-2-yl)methyl)-5-((1-(methylsulfonyl)piperidin-4-yl)methoxy)-4H-pyran-4-one]	150 to 300
CC1(C)c2ccccc2CN1Cc1cc(=O)c(OCC2CCN(S(C)(=O)=O)CC2)co1 [Compound 212, 2-((1,1-Dimethylisoindolin-2-yl)methyl)-5-((1-(methylsulfonyl)piperidin-4-yl)-methoxy)-4H-pyran-4-one]	301 to 2000
O=c1cc(CN2Cc3ccccc3C2)occ1OCCCc1ccncc1 [Compound 214, 2-(Isoindolin-2-ylmethyl)-5-(3-(pyridin-4-yl)propoxy)-4H-pyran-4-one]	150 to 300
CN(C1CCC(COc2coc(CN3Cc4ccccc4C3)cc2=O)CC1)S(C)(=O)=O (stereo not drawn) [Compound 218, N-(4-(((6-(Isoindolin-2-ylmethyl)-4-oxo-4H-pyran-3-yl)oxy)methyl)cyclohexyl)-N-methylmethanesulfonamide]	150 to 300
CS(=O)(=O)C1CCC(COc2coc(CN3Cc4ccccc4C3)cc2=O)CC1 (stereo not drawn) [Compound 220, 2-(Isoindolin-2-ylmethyl)-5-((4-(methylsulfonyl)cyclohexyl)methoxy)-4H-pyran-4-one]	150 to 300
CC(F)(F)C(=O)N1CCC(COc2coc(CN3Cc4ccc(F)cc4C3)cc2=O)CC1 [Compound 223, 5-((1-(2,2-Difluoropropanoyl)piperidin-4-yl)methoxy)-2-((5-fluoroisoindolin-2-yl)methyl)-4H-pyran-4-one]	150 to 300
CNC(=O)C1CCC(COc2coc(CN3Cc4ccccc4C3)cc2=O)CC1 (stereo not drawn) [Compound 227, 4-(((6-(Isoindolin-2-ylmethyl)-4-oxo-4H-pyran-3-yl)oxy)methyl)-N-methylcyclo-hexanecarboxamide]	150 to 300
CNC(=O)N1CCC(COc2coc(CN3Cc4ccccc4C3)cc2=O)CC1 [Compound 228, 4-(((6-(Isoindolin-2-ylmethyl)-4-oxo-4H-pyran-3-yl)oxy)methyl)-N-methyl-piperidine-1-carboxamide]	150 to 300
O=C(N1CCC1)N1CCC(COc2coc(CN3Cc4ccccc4C3)cc2=O)CC1 [Compound 231, 5-((1-(Azetidine-1-carbonyl)piperidin-4-yl)methoxy)-2-(isoindolin-2-ylmethyl)-4H-pyran-4-one]	150 to 300
O=c1cc(CN2Cc3ccccc3C2)occ1OCc1ccc(S(=O)(=O)C2COC2)cc1 [Compound 233, 2-(Isoindolin-2-ylmethyl)-5-((4-(oxetan-3-ylsulfonyl)benzyl)oxy)-4H-pyran-4-one]	150 to 300
CS(=O)(=O)N1CCC(F)(COc2coc(CN3Cc4ccccc4C3)cc2=O)CC1 [Compound 235, 5-((4-Fluoro-1-(methylsulfonyl)piperidin-4-yl)methoxy)-2-(isoindolin-2-yl-methyl)-4H-pyran-4-one]	150 to 300
CC(C)S(=O)(=O)N1CCC(F)(COc2coc(CN3Cc4ccccc4C3)cc2=O)CC1 [Compound 236, 5-((4-Fluoro-1-(isopropylsulfonyl)piperidin-4-yl)methoxy)-2-(isoindolin-2-ylmethyl)-4H-pyran-4-one]	150 to 300
CS(=O)(=O)N1CCC(F)(COc2coc(CN3Cc4ccc(F)cc4C3)cc2=O)CC1 [Compound 237, 5-((4-Fluoro-1-(methylsulfonyl)piperidin-4-yl)methoxy)-2-((5-fluoroisoindolin-2-yl)methyl)-4H-pyran-4-one]	150 to 300
CS(=O)(=O)CC(=O)N1CCC(COc2coc(CN3Cc4ccccc4C3)cc2=O)CC1 [Compound 238, 2-(Isoindolin-2-ylmethyl)-5-((1-(2-(methylsulfonyl)acetyl)piperidin-4-yl)-methoxy)-4H-pyran-4-one]	< 150
Cc1ccc(S(=O)(=O)N=S(C)(=O)C2CCC(COc3coc(CN4Cc5ccccc5C4)cc3=O)CC2)cc1 (stereo not drawn) [Compound 239, N-{[4-({[6-(1,3-Dihydro-2H-isoindol-2-ylmethyl)-4-oxo-4H-pyran-3-yl]oxy}-methyl)cyclohexyl](methyl)oxido-λ^6-sulfanylidene}-4-methylbenzenesulfonamide]	150 to 300

The remaining lines, values ahead:

IC50 [nM]	Compound
< 150	Cc1ccc2c(c1)CN(Cc1cc(=O)c(OCC3CCN(S(C)(=O)=O)CC3)co1)C2 [Compound 211, 2-((5-Methylisoindolin-2-yl)methyl)-5-((1-(methylsulfonyl)piperidin-4-yl)-methoxy)-4H-pyran-4-one]
< 150	CS(=O)(=O)N1CCC(CCCOc2coc(CN3Cc4ccccc4C3)cc2=O)CC1 [Compound 213, 2-(Isoindolin-2-ylmethyl)-5-(3-(1-(methylsulfonyl)piperidin-4-yl)propoxy)-4H-pyran-4-one]
< 150	O=C(N1CCCC1)N1CCC(COc2coc(CN3Cc4ccccc4C3)cc2=O)CC1 [Compound 215, 2-(Isoindolin-2-ylmethyl)-5-((1-(pyrrolidine-1-carbonyl)piperidin-4-yl)methoxy)-4H-pyran-4-one]
< 150	O=c1cc(CN2Cc3ccccc3C2)occ1OC[C@H]1CC[C@H](N2CCCS2(=O)=O)CC1 [Compound 216, 5-(((1r,4r)-4-(1,1-Dioxidoisothiazolidin-2-yl)cyclohexyl)methoxy)-2-(isoindolin-2-ylmethyl)-4H-pyran-4-one]
< 150	CN(C)C(=O)C1CCC(COc2coc(CN3Cc4ccccc4C3)cc2=O)CC1 (stereo not drawn) [Compound 217, 4-(((6-(Isoindolin-2-ylmethyl)-4-oxo-4H-pyran-3-yl)oxy)methyl)-N,N-dimethyl-cyclohexane-1-carboxamide]
< 150	CS(=O)(=O)N(C1CCC(COc2coc(CN3Cc4ccccc4C3)cc2=O)CC1)C1CC1 (stereo not drawn) [Compound 219, N-Cyclopropyl-N-(4-(((6-(isoindolin-2-ylmethyl)-4-oxo-4H-pyran-3-yl)oxy)-methyl)cyclohexyl)methanesulfonamide]
< 150	CCCC(=O)N1CCC(COc2coc(CN3Cc4ccccc4C3)cc2=O)CC1 [Compound 221, 5-((1-Butyrylpiperidin-4-yl)methoxy)-2-(isoindolin-2-ylmethyl)-4H-pyran-4-one]
< 150	CC(F)(F)C(=O)N1CCC(COc2coc(CN3Cc4ccccc4C3)cc2=O)CC1 [Compound 222, 5-((1-(2,2-Difluoropropanoyl)piperidin-4-yl)methoxy)-2-(isoindolin-2-ylmethyl)-4H-pyran-4-one]
< 150	CCC(=O)N1CCC(COc2coc(CN3Cc4ccc(F)cc4C3)cc2=O)CC1 [Compound 224, 2-((5-Fluoroisoindolin-2-yl)methyl)-5-((1-propionylpiperidin-4-yl)methoxy)-4H-pyran-4-one]
< 150	CN(C)S(=O)(=O)N1CCC(COc2coc(CN3Cc4ccccc4C3)cc2=O)CC1 [Compound 225, 4-(((6-(Isoindolin-2-ylmethyl)-4-oxo-4H-pyran-3-yl)oxy)methyl)-N,N-dimethyl-piperidine-1-sulfonamide]
< 150	O=C(C1CC1)N1CCC(COc2coc(CN3Cc4ccccc4C3)cc2=O)CC1 [Compound 226, 5-((1-(Cyclopropanecarbonyl)piperidin-4-yl)methoxy)-2-(isoindolin-2-ylmethyl)-4H-pyran-4-one]
< 150	CC(C)NC(=O)N1CCC(COc2coc(CN3Cc4ccccc4C3)cc2=O)CC1 [Compound 229, 4-(((6-(Isoindolin-2-ylmethyl)-4-oxo-4H-pyran-3-yl)oxy)methyl)-N-isopropyl-piperidine-1-carboxamide]
< 150	CN(C)S(=O)(=O)N1CCC(COc2coc(CN3Cc4ccc(F)cc4C3)cc2=O)CC1 [Compound 230, 4-(((6-((5-Fluoroisoindolin-2-yl)methyl)-4-oxo-4H-pyran-3-yl)oxy)methyl)-N,N-dimethylpiperidine-1-sulfonamide]
< 150	O=C(N1CCOCC1)N1CCC(COc2coc(CN3Cc4ccccc4C3)cc2=O)CC1 [Compound 232, 2-(Isoindolin-2-ylmethyl)-5-((1-(morpholine-4-carbonyl)piperidin-4-yl)methoxy)-4H-pyran-4-one]
< 150	O=C(C1CCC(COc2coc(CN3Cc4ccccc4C3)cc2=O)CC1)N1CCC1 (stereo not drawn) [Compound 234, 5-((4-(Azetidine-1-carbonyl)cyclohexyl)methoxy)-2-(isoindolin-2-ylmethyl)-4H-pyran-4-one]
